Data set [1] in a line: logP determination by HPLC (EEC direction 79/831 Annex V. A8). The note with it: eluent not stated. It is filed as physicochemical.
The test system of data set [2] is Plasmopara viticola. Description: Plasmopara Test (grapevine)/Protective. The data set is classed as in vivo. The note with it: protective, application rate 100 g/ha, evaluation 6 days after inoculation. As to the method: Plasmopara Test (grapevine)/Protective
(§1) To produce a suitable preparation of active compound, 1 part by weight of active compound is mixed with the stated amounts of solvent and emulsifier, and the concentrate is diluted with water to the desired concentration.
To test for protective activity, young plants are sprayed with the preparation of active compound at the stated application rate. After the spray coating has dried on, the plants are inoculated with an aqueous spore suspension of Plasmopara viticola and then remain in an incubation cabin at approximately 20° C. and 100% relative atmospheric humidity for 1 day. The plants are then placed in a greenhouse at approximately 21° C. and approximately 90% relative atmospheric humidity. The plants are then moistened and placed in an incubation cabin for 1 day.
Evaluation is carried out 6 days after the inoculation. 0% means an efficacy which corresponds to that of the control, whereas an efficacy of 100% means that no infection is observed.

Data set [3] concerns Venturia inaequalis. Description: Venturia Test (apple)/Protective. The data set is classed as in vivo. The settings on record: protective, application rate 10 g/ha, evaluation 12 days after inoculation. As to the method: Venturia Test (apple)/Protective
as §1
To test for protective activity, young plants are sprayed with the preparation of active compound at the stated application rate. After the spray coating has dried on, the plants are inoculated with an aqueous conidia suspension of the causative organism of apple scab Venturia inaequalis and then remain in an incubation cabin at approximately 20° C. and 100% relative atmospheric humidity for 1 day.
The plants are then placed in a greenhouse at approximately 21° C. and a relative atmospheric humidity of approximately 90%.
Evaluation is carried out 12 days after the inoculation. 0% means an efficacy which corresponds to that of the control, whereas an efficacy of 100% means that no infection is observed.

The test system of data set [4] is Sphaerotheca fuliginea. Briefly: Sphaerotheca Test (cucumber)/Protective. The data set is classed as in vivo. The note with it: protective, application rate 100 g/ha, evaluation 10 days after inoculation. How it is done: Sphaerotheca Test (cucumber)/Protective
as §1
To test for protective activity, young plants are sprayed with the preparation of active compound at the stated application rate. After the spray coating has dried on, the plants are inoculated with an aqueous spore suspension of Sphaerotheca fuliginea. The plants are then placed in a greenhouse at approximately 23° C. and a relative atmospheric humidity of approximately 70%.
Evaluation is carried out 10 days after the inoculation. 0% means an efficacy which corresponds to that of the control, whereas an efficacy of 100% means that no infection is observed.

As usually defined, the chromatographic logP is lipophilicity estimated from chromatographic retention. Low values mean a more hydrophilic compound, high ones a more lipophilic compound. Compound `CO/N=C(\C)C(C)=NN` [3-hydrazono-butan-2-one O-methyl oxime] registered a chromatographic logP in data set [1] of 0.97.
With `COC(=O)/C=C(/OC)c1ccccc1C=NN=C(C)c1cccc(C(F)(F)F)c1` [Example 1, methyl 3-methoxy-3-(2-{[1-(3-trifluoromethylphenyl)-ethylidene]-hydrazonomethyl}-phenyl)-acrylate], the efficacy result in data set [2] is “more than 80%”; in data set [3], “more than 90%”; in data set [4], “more than 80%”. This compound came in with a chromatographic logP in data set [1] of 4.4.

Source of the values: patent US6410600B1, “Azine used as fungicides” (Bayer Aktiengesellschaft, priority 1998, dated 2002).
